Values joined by “and” are separate entries in the source; they are usually repeats but may differ in a detail not shown here. Equal entries are not always repeated. Where a SMILES comes first, the peptide text is derived from it. [ ]: non-standard residue; d: D form. Sar = CNCC(=O)O
What was measured:
peptide transporters [1] = assay: [3H]-GlySar uptake in MDCK-MDR1 cells; assay type: cell-based; settings: cold GlySar 10 mM, DPBS pH 7.4, 37 °C
peptide transporters [2] = assay: [3H]-GlySar uptake in MDCK-MRP2 cells; assay type: cell-based; settings: cold GlySar 10 mM, DPBS pH 7.4, 37 °C
MDCK-WT cells = assay: Cytotoxicity, MTS based assay, 4 h incubation; assay type: cell-based
P-gp = P-gp (Homo sapiens, UniProt P08183); assay: [3H]-LPV cellular uptake in MDCK-MDR1 cells; assay type: cell-based; settings: compound 50 μM, DPBS pH 7.4, 37 °C, 30 min
P-gp, sequence (P08183 whole entry): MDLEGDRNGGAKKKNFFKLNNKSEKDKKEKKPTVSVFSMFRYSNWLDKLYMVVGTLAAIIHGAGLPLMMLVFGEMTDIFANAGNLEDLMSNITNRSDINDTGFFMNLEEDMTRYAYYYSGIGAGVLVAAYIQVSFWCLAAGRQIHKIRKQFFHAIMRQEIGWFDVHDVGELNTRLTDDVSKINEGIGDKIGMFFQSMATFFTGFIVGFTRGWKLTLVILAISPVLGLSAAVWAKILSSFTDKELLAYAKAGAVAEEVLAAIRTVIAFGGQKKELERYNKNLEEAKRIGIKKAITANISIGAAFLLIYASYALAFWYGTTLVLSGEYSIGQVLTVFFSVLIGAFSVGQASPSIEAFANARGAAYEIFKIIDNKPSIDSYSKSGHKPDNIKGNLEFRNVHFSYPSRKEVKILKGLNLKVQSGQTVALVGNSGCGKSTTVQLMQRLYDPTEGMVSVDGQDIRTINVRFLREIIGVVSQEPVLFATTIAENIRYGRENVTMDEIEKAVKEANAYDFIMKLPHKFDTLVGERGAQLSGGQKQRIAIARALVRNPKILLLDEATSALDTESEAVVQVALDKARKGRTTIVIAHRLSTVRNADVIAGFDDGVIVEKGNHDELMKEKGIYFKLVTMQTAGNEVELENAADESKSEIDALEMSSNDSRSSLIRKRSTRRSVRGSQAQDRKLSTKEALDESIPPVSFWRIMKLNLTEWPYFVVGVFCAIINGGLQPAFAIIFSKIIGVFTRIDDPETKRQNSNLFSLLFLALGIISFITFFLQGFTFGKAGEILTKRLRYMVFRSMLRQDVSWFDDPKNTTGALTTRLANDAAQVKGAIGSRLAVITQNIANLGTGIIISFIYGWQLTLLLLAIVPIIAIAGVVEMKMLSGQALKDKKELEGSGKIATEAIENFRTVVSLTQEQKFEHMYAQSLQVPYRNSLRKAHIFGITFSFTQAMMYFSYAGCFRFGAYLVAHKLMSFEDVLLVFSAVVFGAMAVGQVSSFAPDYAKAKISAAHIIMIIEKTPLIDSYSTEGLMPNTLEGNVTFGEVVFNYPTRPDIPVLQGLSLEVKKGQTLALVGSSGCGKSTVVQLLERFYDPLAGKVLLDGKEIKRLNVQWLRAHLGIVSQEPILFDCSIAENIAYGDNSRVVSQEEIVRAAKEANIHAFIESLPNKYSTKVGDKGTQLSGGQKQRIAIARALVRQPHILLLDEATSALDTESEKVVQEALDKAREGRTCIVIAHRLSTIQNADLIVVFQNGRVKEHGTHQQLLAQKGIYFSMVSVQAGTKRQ

MRP2 [3] = biological target: T1, MRP2 (Homo sapiens, UniProt Q92887); assay: [3H]-LPV cellular uptake in MDCK-MRP2 cells; assay type: cell-based; settings: compound 50 μM, DPBS pH 7.4, 37 °C, 30 min
T1 sequence (Q92887 whole entry): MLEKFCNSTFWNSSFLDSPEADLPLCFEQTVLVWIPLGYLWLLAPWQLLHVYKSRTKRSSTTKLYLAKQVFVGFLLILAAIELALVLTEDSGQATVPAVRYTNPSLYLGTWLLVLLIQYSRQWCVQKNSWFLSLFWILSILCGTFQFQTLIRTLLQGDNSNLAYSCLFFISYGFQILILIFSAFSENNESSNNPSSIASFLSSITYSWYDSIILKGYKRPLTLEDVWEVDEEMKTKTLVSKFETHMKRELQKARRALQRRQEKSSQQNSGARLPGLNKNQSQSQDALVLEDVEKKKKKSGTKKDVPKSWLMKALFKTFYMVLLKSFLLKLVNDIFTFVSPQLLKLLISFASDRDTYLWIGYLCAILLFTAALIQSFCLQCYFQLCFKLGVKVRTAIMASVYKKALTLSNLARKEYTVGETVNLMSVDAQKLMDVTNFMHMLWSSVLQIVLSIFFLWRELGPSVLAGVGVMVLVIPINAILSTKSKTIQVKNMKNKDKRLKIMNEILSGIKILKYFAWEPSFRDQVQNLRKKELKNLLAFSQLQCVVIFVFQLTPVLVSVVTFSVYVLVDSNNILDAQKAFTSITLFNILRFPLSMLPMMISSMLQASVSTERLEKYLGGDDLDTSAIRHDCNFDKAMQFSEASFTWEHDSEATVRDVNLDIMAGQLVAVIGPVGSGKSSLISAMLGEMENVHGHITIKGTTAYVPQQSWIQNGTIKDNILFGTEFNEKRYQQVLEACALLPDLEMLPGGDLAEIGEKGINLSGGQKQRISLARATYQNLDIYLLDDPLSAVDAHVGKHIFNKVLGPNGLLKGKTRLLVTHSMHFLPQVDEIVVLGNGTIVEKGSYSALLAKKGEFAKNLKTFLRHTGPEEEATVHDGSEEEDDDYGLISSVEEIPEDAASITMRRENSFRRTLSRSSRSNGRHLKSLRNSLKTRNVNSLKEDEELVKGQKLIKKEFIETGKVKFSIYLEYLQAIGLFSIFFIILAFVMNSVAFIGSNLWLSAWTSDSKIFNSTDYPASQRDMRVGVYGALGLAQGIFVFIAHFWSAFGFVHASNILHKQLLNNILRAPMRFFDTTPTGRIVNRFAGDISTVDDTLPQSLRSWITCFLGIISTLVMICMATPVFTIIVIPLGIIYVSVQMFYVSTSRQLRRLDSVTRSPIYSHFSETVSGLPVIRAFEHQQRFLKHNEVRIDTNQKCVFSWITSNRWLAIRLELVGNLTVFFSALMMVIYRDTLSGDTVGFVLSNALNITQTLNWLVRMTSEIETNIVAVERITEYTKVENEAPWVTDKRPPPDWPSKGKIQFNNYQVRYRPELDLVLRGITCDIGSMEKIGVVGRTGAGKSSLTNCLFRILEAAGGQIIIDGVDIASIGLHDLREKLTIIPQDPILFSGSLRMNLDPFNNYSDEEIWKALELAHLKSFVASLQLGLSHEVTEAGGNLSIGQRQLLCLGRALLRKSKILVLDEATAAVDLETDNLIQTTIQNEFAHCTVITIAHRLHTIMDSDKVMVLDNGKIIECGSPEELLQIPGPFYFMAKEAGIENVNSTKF

[4] = A-B transepithelial transport across MDCK-MDR1 cells; assay type: in vitro ADME; settings: dog, MDCK-MDR1, pH 7.4
[5] = A-B transepithelial transport across MDCK-MRP2 cells; assay type: in vitro ADME; settings: dog, pH 7.4
[6] = A-B transepithelial transport across Caco2 cells; assay type: in vitro ADME; settings: human, Caco-2, pH 5
metabolizing enzymes [7] = assay: Time dependent degradation in rat liver microsomes; assay type: in vitro ADME; settings: rat liver microsomes 0.3 mg/mL, 25 μM, 37 °C, 2 h
metabolizing enzymes [8] = assay: Concentration dependent degradation in rat liver microsomes; assay type: in vitro ADME; settings: rat liver microsomes 0.3 mg/mL, 5 min, Michaelis-Menten fit
MDCK-MDR1 cells = settings: ref Patel et al., 2014b; cited from earlier work
MDCK-MRP2 cells = settings: ref Patel et al., 2014b; cited from earlier work
MRP2 [9] = biological target: T1, MRP2; assay: Non-radiolabelled uptake of Val-Ile-LPV in MDCK-MRP2 cells with MRP2 inhibitor; assay type: cell-based; settings: DPBS pH 7.4, 37 °C
metabolizing enzymes [10] = settings: liver microsomes; ref Agarwal et al., 2008; cited from earlier work

CN(CC(=O)O)C(=O)CN [GlySar] (H-Gly-[Sar]-OH)
Reduction in [3H]-GlySar uptake (peptide transporters [1]): ~80%
Reduction in [3H]-GlySar uptake (peptide transporters [2]): ~80%

Cc1cccc(C)c1OCC(=O)N[C@@H](Cc1ccccc1)[C@@H](O)C[C@H](Cc1ccccc1)NC(=O)[C@H](C(C)C)N1CCCNC1=O [LPV, lopinavir]
Enhancement of [3H]-LPV uptake in the presence of unlabelled compound (P-gp): 3.2 fold
Enhancement of [3H]-LPV uptake in the presence of unlabelled compound (MRP2 [3]): 2.5 fold
Papp A→B at 3 h, 25 μM [5]: 2.7 ×10⁻⁶ cm/s
Papp A→B at 3 h, 25 μM [6]: 2.6 ×10⁻⁶ cm/s
Degradation rate constant in liver microsomes (metabolizing enzymes [7]): 6.0 ± 0.5 × 10^−3 min^−1 and 3.3 ± 0.3 × 10^−3 min^−1
Vmax (metabolizing enzymes [8]): 8.1 ± 0.4 nmoles/min/mg protein
Apparent permeability, secretive (B-A) direction (MDCK-MDR1 cells): 5.8 ± 0.5 × 10^−6 cm/s
Secretive (B-A) permeability (MDCK-MRP2 cells): 6.0 ± 0.1 × 10^−6 cm/s

CN(C)C(=O)CCSC(SCCC(=O)O)c1cccc(/C=C/c2ccc3ccc(Cl)cc3n2)c1 (centres unmarked) [MK 571]
Uptake as % control (Val-Ile-LPV) (MRP2 [9]; uptake of Val-Ile-LPV 50 μM in the presence of MK 571 25 μM): 104 ± 4 % control
Uptake as % control (Val-Ile-LPV) (MRP2 [9]; uptake of Val-Ile-LPV 50 μM in the presence of MK 571 75 μM): 102 ± 2 % control

Cc1cccc(C)c1OCC(=O)NC(Cc1ccccc1)C(CC(Cc1ccccc1)NC(=O)C(C(C)C)N1CCCNC1=O)OC(=O)C(NC(=O)CN)C(C)C (centres unmarked) [glycine-valine-LPV]
Metabolic stability, fold increase relative to LPV (metabolizing enzymes [10]): 2.44 fold

Cc1cccc(C)c1OCC(=O)NC(Cc1ccccc1)C(CC(Cc1ccccc1)NC(=O)C(C(C)C)N1CCCNC1=O)OC(=O)C(NC(=O)C(N)C(C)C)C(C)C (centres unmarked) [valine-valine-LPV]
Metabolic stability, fold increase relative to LPV (metabolizing enzymes [10]): 1.48 fold

Triton-X
Reduction in absorbance relative to control (MDCK-WT cells; 0.1%, positive control): 90%
